Test results published in patent US10596127B2, “Composition for reducing the frequency of urination, method of making and use thereof” (WELLESLEY PHARMACEUTICALS, LLC, priority 2013, dated 2020).

Each molecule was assayed on PGE2 secretion by mouse bladder cells (assay: PGE2 ELISA of mouse bladder cell culture supernatants). Conditions: LPS (1 μg/ml) plus analgesic 5 μM; LPS alone 925 ± 55, unstimulated <20.5.
Type: cell-based
Method: Bladder cells were removed from euthanized animals C57BL/6 mice (8-12 weeks old) and cells were isolated by enzymatic digestion followed by purification on a Percoll gradient. […] Bladder slurries were enzymatically digested for 30 minutes at 37° C. Undigested fragments were further dispersed through a cell-trainer. The cell suspension was pelleted and added to a discontinue 20%, 40% and 75% Percoll gradient for purification on mononuclear cells. Each experiment used 50-60 bladders. […] Cells were cultured at 37° C. in a 5% CO2 atmosphere. Bladder cells were treated with analgesic solutions (50 well) either alone or together with carbachol (10-Molar, 50 μl/well), as an example of non-inflammatory stimuli, or lipopolysaccharide (LPS) of Salmonella typhimurium (1 μg/ml, 50 μl/well), as an example of […] stimuli. […] Cells were fixed, permeabilized and blocked for detection of Cyclooxygenase-2 (COX2) using a fluorogenic substrate. In selected experiment cells were stimulated 12 hours in vitro for analysis of COX2 responses […] More specifically, culture supernatants or PGE2 standards were added to the wells of a 96-well polystyrene microplate coated with a goat anti-mouse polyclonal antibody. After one hour incubation on a microplate shaker, an HRP-conjugated PGE2 was added and plates incubated for an additional two hours at room temperature. The plates were then washed and HRP substrate solution added to each well. The color was allowed to develop for 30 min and the reaction stopped by addition sulfuric acid before reading the plate at 450 nm with wavelength correction at 570 nm. Results are expressed as mean pg/ml of PGE2.
With `CC(=O)Nc1ccc(O)cc1` [Acetaminophen, N-acetyl-para-aminophenol] the “PGE2 levels” value was 619 ± 32 pg/mL. With `CC(C)Cc1ccc(C(C)C(=O)O)cc1` (stereo not drawn) [Ibuprofen, ibuprofen] the “PGE2 levels” value was 593 ± 46 pg/mL.

Same assay, conditions: LPS (1 μg/ml) plus analgesic 50 μM; LPS alone 925 ± 55, unstimulated <20.5
In the case of `CC(=O)Nc1ccc(O)cc1` [Acetaminophen, N-acetyl-para-aminophenol], the “PGE2 levels” value is reported as 600 ± 45 pg/mL. With `CC(C)Cc1ccc(C(C)C(=O)O)cc1` (stereo not drawn) [Ibuprofen, ibuprofen] the “PGE2 levels” value was 568 ± 32 pg/mL.

Same assay, conditions: LPS (1 μg/ml); analgesic 5 or 50 μM
For `CC(=O)Nc1ccc(O)cc1` [Acetaminophen, N-acetyl-para-aminophenol], the “effect on the effect of LPS on PGE2 secretion” value was “suppressed”. `CC(C)Cc1ccc(C(C)C(=O)O)cc1` (stereo not drawn) [Ibuprofen, ibuprofen] was tested, and the “effect on the effect of LPS on PGE2 secretion” value was “suppressed”.

Same assay, conditions: stimulus alone, no analgesic (LPS 1 μg/ml; Carbachol (mM)); unstimulated <20.5
`C[N+](C)(C)CCOC(N)=O` [Carbachol, carbachol] was tested, and the “PGE2 levels” value was under 20.5 pg/mL.

Same assay, conditions: stimulus alone, no analgesic (LPS 1 μg/ml; Carbachol (mM)); unstimulated <20.5; listed as carbachol
In the case of `C[N+](C)(C)CCOC(N)=O` [Carbachol, carbachol], the “PGE2 levels (pg/ml)” value is reported as “not detected”.

The molecules below were run on TNFα secretion by normal human bladder smooth muscle cells (assay: TNFα ELISA of normal human bladder smooth muscle cell supernatants). Conditions: Carbachol 10^−3 M plus analgesic 50 μM; carbachol alone 286, unstimulated <5.
Type: cell-based
Method: (§1) Culture supernatants were subjected to cytokine-specific ELISA to determine IL-1β, IL-6 and TNF-α responses in cultures of macrophages treated with analgesic, LPS alone or a combination of LPS and analgesic. The assays were performed on Nunc MaxiSorp Immunoplates (Nunc) coated overnight with 100 μl of anti-mouse IL-6, TNF-α mAbs (BD Biosciences) or IL-1β mAb (R&D Systems) in 0.1 M sodium bicarbonate buffer (pH 9.5). After two washes with PBS (200 μl per well), 200 μl of PBS 3% BSA were added in each well (blocking) and the plates incubated for 2 hours at room temperature. Plates were washed again two times by addition of 200 μl per well, 100 μl of cytokine standards and serial dilutions of culture supernatants were added in duplicate and the plates were incubated overnight at 4° C. Finally, the plates were washed twice and incubated with 100 μl of secondary biotinylated anti-mouse IL-6, TNFα mAbs (BD Biosciences) or IL-1β (R&D Systems) followed by peroxidase-labelled goat anti-biotin mAb (Vector Laboratories). The colorimetric reaction was developed by the addition of 2,2′-azino-bis(3)-ethylbenzylthiazoline-6-sulfonic acid (ABTS) substrate and H2O2 (Sigma) and the absorbance measured at 415 nm with a Victor® V multilabel plate reader (PerkinElmer).
(§2) Normal human bladder smooth muscle cells were isolated by enzymatic digestion from macroscopically normal pieces of human bladder. Cells were expended in vitro by culture at 37° C. in a 5% CO2 atmosphere in RPMI 1640 supplemented with 10% fetal bovine serum, 15 mM HEPES, 2 mM L-glutamine, 100 U/ml penicillin, and […] of streptomycin and passage once a week by treatment with trypsin to detach cells followed by reseeding in a new culture flask. The first week of culture, the culture medium was supplemented with 0.5 ng/ml epidermal growth factor, 2 ng/ml fibroblast growth factor, and 5 μg/ml insulin.
(§3) Bladder smooth muscle cells trypsinized and seeded in microculture plates at a cell density of 3×10^4 cells per well in 100 μl were treated with analgesic solutions (50 μl/well) either alone or together carbachol (10-Molar, 50 μl/well), as an example of non-inflammatory stimuli, or lipopolysaccharide (LPS) of Salmonella typhimurium (1 μg/ml, 50 μl/well), as an example of […] stimuli. When no other effectors were added to the cells, 50 μl of RPMI 1640 without fetal bovine serum were added to the wells to adjust the final volume to 200 μl.
(§4) After 24 hours of culture, 150 μl of culture supernatants were collected, spun down for 2 min at 8,000 rpm at 4° C. to remove cells and debris and stored at −70° C. for analysis of Prostaglandin E2 (PGE2) responses by ELISA. Cells were fixed, permeabilized and blocked for detection of COX2 using a fluorogenic substrate. In selected experiment cells were stimulated 12 hours in vitro for analysis of COX2, PGE2 and cytokine responses.
(§5) COX2 and PGE2 responses were analyzed as described in Example 3. Cytokine responses were analyzed as described in Example 2.
With `CC(=O)Nc1ccc(O)cc1` [Acetaminophen, N-acetyl-para-aminophenol] the “TNFα (pg/ml) Subject 2” value was 164 pg/mL. In the case of `CC(C)Cc1ccc(C(C)C(=O)O)cc1` (stereo not drawn) [Ibuprofen, ibuprofen], the “TNFα (pg/ml) Subject 2” value is reported as 121 pg/mL.

Same assay, conditions: Carbachol 10^−3 M plus analgesic 50 μM; carbachol alone 350, unstimulated <5; mean of duplicates
In the case of `CC(=O)Nc1ccc(O)cc1` [Acetaminophen, N-acetyl-para-aminophenol], the “TNFα (pg/ml) Subject 1” value is reported as 138 pg/mL. In the case of `CC(C)Cc1ccc(C(C)C(=O)O)cc1` (stereo not drawn) [Ibuprofen, ibuprofen], the “TNFα (pg/ml) Subject 1” value is reported as 146 pg/mL.

Same assay, conditions: LPS-induced responses: analgesic at either 5 μM or 50 μM
With `CC(=O)Nc1ccc(O)cc1` [Acetaminophen, N-acetyl-para-aminophenol] the “effect on the effect of carbachol and LPS on TNFα responses” value was “suppress”. For `CC(C)Cc1ccc(C(C)C(=O)O)cc1` (stereo not drawn) [Ibuprofen, ibuprofen], the “effect on the effect of carbachol and LPS on TNFα responses” value was “suppress”.

Same assay, conditions: no analgesic
In the case of `C[N+](C)(C)CCOC(N)=O` [Carbachol, carbachol], the “TNFα responses to stimulus alone” value is reported as “induced low, but significant TNFα and IL-6 responses”.

These molecules were tested on IL-6 secretion by normal human bladder smooth muscle cells (assay: IL-6 ELISA of normal human bladder smooth muscle cell supernatants). Conditions: Carbachol 10^−3 M plus analgesic 50 μM; carbachol alone 232, unstimulated <5; mean of duplicates.
Type: cell-based
Method: as §1, §2, §3, §4, §5
In the case of `CC(=O)Nc1ccc(O)cc1` [Acetaminophen, N-acetyl-para-aminophenol], the “IL-6 (pg/ml) Subject 1” value is reported as 119 pg/mL. `CC(C)Cc1ccc(C(C)C(=O)O)cc1` (stereo not drawn) [Ibuprofen, ibuprofen] was tested, and the “IL-6 (pg/ml) Subject 1” value was 107 pg/mL.

Same assay, conditions: Carbachol 10^−3 M plus analgesic 50 μM; carbachol alone 278, unstimulated <5
For `CC(=O)Nc1ccc(O)cc1` [Acetaminophen, N-acetyl-para-aminophenol], the “IL-6 (pg/ml) Subject 2” value was 135 pg/mL. In the case of `CC(C)Cc1ccc(C(C)C(=O)O)cc1` (stereo not drawn) [Ibuprofen, ibuprofen], the “IL-6 (pg/ml) Subject 2” value is reported as 118 pg/mL.

Same assay, conditions: LPS-induced responses: analgesic at either 5 μM or 50 μM
In the case of `CC(=O)Nc1ccc(O)cc1` [Acetaminophen, N-acetyl-para-aminophenol], the “effect on the effect of carbachol and LPS on IL-6 responses” value is reported as “suppress”. For `CC(C)Cc1ccc(C(C)C(=O)O)cc1` (stereo not drawn) [Ibuprofen, ibuprofen], the “effect on the effect of carbachol and LPS on IL-6 responses” value was “suppress”.

Same assay, conditions: no analgesic
`C[N+](C)(C)CCOC(N)=O` [Carbachol, carbachol] was tested, and the “IL-6 responses to stimulus alone” value was “induced low, but significant TNFα and IL-6 responses”.

What follows are molecules tested on TNFα secretion by normal human bladder smooth muscle cells (assay: TNFα ELISA of normal human bladder smooth muscle cell supernatants). Conditions: LPS (10 μg/ml) plus analgesic 5 μM; LPS alone 4107.
Type: cell-based
For `CC(=O)Nc1ccc(O)cc1` [Acetaminophen, N-acetyl-para-aminophenol], the “TNFα (pg/ml) Subject 2” value was 2267 pg/mL. In the case of `CC(C)Cc1ccc(C(C)C(=O)O)cc1` (stereo not drawn) [Ibuprofen, ibuprofen], the “TNFα (pg/ml) Subject 2” value is reported as 2288 pg/mL.

Same assay, conditions: LPS (10 μg/ml) plus analgesic 5 μM; LPS alone 5725; mean of duplicates
For `CC(=O)Nc1ccc(O)cc1` [Acetaminophen, N-acetyl-para-aminophenol], the “TNFα (pg/ml) Subject 1” value was 2338 pg/mL. `CC(C)Cc1ccc(C(C)C(=O)O)cc1` (stereo not drawn) [Ibuprofen, ibuprofen] was tested, and the “TNFα (pg/ml) Subject 1” value was 2733 pg/mL.

Same assay, conditions: LPS (10 μg/ml) plus analgesic 50 μM; LPS alone 4107
`CC(=O)Nc1ccc(O)cc1` [Acetaminophen, N-acetyl-para-aminophenol] was tested, and the “TNFα (pg/ml) Subject 2” value was 2056 pg/mL. In the case of `CC(C)Cc1ccc(C(C)C(=O)O)cc1` (stereo not drawn) [Ibuprofen, ibuprofen], the “TNFα (pg/ml) Subject 2” value is reported as 1997 pg/mL.

Same assay, conditions: LPS (10 μg/ml) plus analgesic 50 μM; LPS alone 5725; mean of duplicates
In the case of `CC(=O)Nc1ccc(O)cc1` [Acetaminophen, N-acetyl-para-aminophenol], the “TNFα (pg/ml) Subject 1” value is reported as 2184 pg/mL. `CC(C)Cc1ccc(C(C)C(=O)O)cc1` (stereo not drawn) [Ibuprofen, ibuprofen] was tested, and the “TNFα (pg/ml) Subject 1” value was 2603 pg/mL.

Same assay, conditions: stimulus alone, no analgesic (Carbachol 10^−3 M; LPS 10 μg/ml); unstimulated <5
In the case of `C[N+](C)(C)CCOC(N)=O` [Carbachol, carbachol], the “TNFα (pg/ml) Subject 1” value is reported as 350 pg/mL and the “TNFα (pg/ml) Subject 2” value is reported as 286 pg/mL.

These molecules were tested on IL-6 secretion by normal human bladder smooth muscle cells (assay: IL-6 ELISA of normal human bladder smooth muscle cell supernatants). Conditions: LPS (10 μg/ml) plus analgesic 5 μM; LPS alone 4383.
Type: cell-based
`CC(=O)Nc1ccc(O)cc1` [Acetaminophen, N-acetyl-para-aminophenol] was tested, and the “IL-6 (pg/ml) Subject 2” value was 2308 pg/mL. With `CC(C)Cc1ccc(C(C)C(=O)O)cc1` (stereo not drawn) [Ibuprofen, ibuprofen] the “IL-6 (pg/ml) Subject 2” value was 2173 pg/mL.

Same assay, conditions: LPS (10 μg/ml) plus analgesic 5 μM; LPS alone 4838; mean of duplicates
`CC(=O)Nc1ccc(O)cc1` [Acetaminophen, N-acetyl-para-aminophenol] was tested, and the “IL-6 (pg/ml) Subject 1” value was 2012 pg/mL. With `CC(C)Cc1ccc(C(C)C(=O)O)cc1` (stereo not drawn) [Ibuprofen, ibuprofen] the “IL-6 (pg/ml) Subject 1” value was 2063 pg/mL.

Same assay, conditions: LPS (10 μg/ml) plus analgesic 50 μM; LPS alone 4383
With `CC(=O)Nc1ccc(O)cc1` [Acetaminophen, N-acetyl-para-aminophenol] the “IL-6 (pg/ml) Subject 2” value was 1983 pg/mL. `CC(C)Cc1ccc(C(C)C(=O)O)cc1` (stereo not drawn) [Ibuprofen, ibuprofen] was tested, and the “IL-6 (pg/ml) Subject 2” value was 1991 pg/mL.

Same assay, conditions: LPS (10 μg/ml) plus analgesic 50 μM; LPS alone 4838; mean of duplicates
In the case of `CC(=O)Nc1ccc(O)cc1` [Acetaminophen, N-acetyl-para-aminophenol], the “IL-6 (pg/ml) Subject 1” value is reported as 2018 pg/mL. `CC(C)Cc1ccc(C(C)C(=O)O)cc1` (stereo not drawn) [Ibuprofen, ibuprofen] was tested, and the “IL-6 (pg/ml) Subject 1” value was 2021 pg/mL.

Same assay, conditions: stimulus alone, no analgesic (Carbachol 10^−3 M; LPS 10 μg/ml); unstimulated <5
For `C[N+](C)(C)CCOC(N)=O` [Carbachol, carbachol], the “IL-6 (pg/ml) Subject 1” value was 232 pg/mL and the “IL-6 (pg/ml) Subject 2” value was 278 pg/mL.
